Experimental data as given in patent US5310762A, “Medicaments” (Burroughs Wellcome Co., priority 1988, dated 1994).

Columns and labels:
[1] = system: Pneumocystis carinii; experiment: Activity against Pneumocystis carinii: treatment of latent infection in dexamethasone-treated rats; type: in vivo; details: weeks 5-7; for SCORE 2 (number of rats): 2+: focal areas of pneumonitis surrounded by 10 to 25 h.p.f. of normal lung; for SCORE 3 (number of rats): 3+: lung diffusely and extensively involved; for SCORE 4 (number of rats): score 4 not defined; for SCORE 0 (number of rats): score none: no organism seen; for SCORE 1 (number of rats): 1+: cysts sparsely distributed, less than one per 25 h.p.f.
Method: Groups of 10 rats were treated with dexamethasone to allow latent Pneumocystis carinii infection to develop. Tetracycline was also administered to protect against bacterial infections. […] In parallel with each test compound, Celacol was administered to one group of rats (also treated with dexamethasone and tetracycline) as a control. At the end of the test period the animals were sacrificed and autopsies carried out. The lungs were removed and the right lung bisected. An imprint was made onto microscope slides and stained with toluidine blue. One half of the lung was placed in formalin, processed in paraffin blocks, sectioned and stained by the Gomori methanamine silver nitrate method. After autopsy the extent of P. carinii pneumonitis was scored under coded study as none if no organism seen; 1+ if P. carinii cysts seen sparsely distributed with less than one per 25 high power field (h.p.f.); 2+ if focal areas of P. carinii pneumonitis surrounded by 10 to 25 h.p.f. of normal lung and 3+ if lung diffusely and extensively involved with organisms in almost all h.p.f.s.

[2] = system: Pneumocystis carinii pneumonia; details: AIDS patients; Wofsy, Antimicrobial Agents Annual 1986; cited from earlier work
[3] = human, in vivo; cited from earlier work
[4] = Water-solubility; type: physicochemical; details: as compared with the corresponding compound wherein R13 is hydroxy

| Compound | % INFECTED ([1]; 25 mg/kg/day oral) [%] | NO. INFECTED/NO. EXAMINED ([1]; 25 mg/kg/day oral) | SCORE 2 (number of rats) ([1]; 25 mg/kg/day oral) | SCORE 3 (number of rats) ([1]; 25 mg/kg/day oral) | SCORE 4 (number of rats) ([1]; 25 mg/kg/day oral) | SCORE 0 (number of rats) ([1]; 25 mg/kg/day oral) | % INFECTED ([1]; 50 mg/kg/day oral) [%] | NO. INFECTED/NO. EXAMINED ([1]; 50 mg/kg/day oral) | SCORE 1 (number of rats) ([1]; 50 mg/kg/day oral) | SCORE 2 (number of rats) ([1]; 50 mg/kg/day oral) | SCORE 3 (number of rats) ([1]; 50 mg/kg/day oral) | SCORE 4 (number of rats) ([1]; 50 mg/kg/day oral) | SCORE 0 (number of rats) ([1]; 50 mg/kg/day oral) | % INFECTED ([1]; 100 mg/kg/day oral) [%] | NO. INFECTED/NO. EXAMINED ([1]; 100 mg/kg/day oral) | SCORE 1 (number of rats) ([1]; 100 mg/kg/day oral) | SCORE 2 (number of rats) ([1]; 100 mg/kg/day oral) | SCORE 3 (number of rats) ([1]; 100 mg/kg/day oral) | SCORE 4 (number of rats) ([1]; 100 mg/kg/day oral) | SCORE 0 (number of rats) ([1]; 100 mg/kg/day oral) | further results |
| --- | --- | --- | --- | --- | --- | --- | --- | --- | --- | --- | --- | --- | --- | --- | --- | --- | --- | --- | --- | --- | --- |
| O=C1C(Cl)=C(C2CCC(c3ccc(Cl)cc3)CC2)C(=O)c2ccccc21 (stereo not shown) [A, 2-[4-(4-chlorophenyl)cyclohexyl]-3-chloro-1,4-naphthoquinone] | 100 | 14/14 | 6 | 3 | 0 | 0 | 100 | 15/15 | 8 | 5 | 2 | 0 | 0 | 73 | 11/15 | 6 | 4 | 1 | 0 | 4 | SCORE 1 (number of rats) ([1]; oral): 5 |
| N=C(N)c1ccc(OCCCCCOc2ccc(C(=N)N)cc2)cc1 [pentamidine] | – | – | – | – | – | – | – | – | – | – | – | – | – | – | – | – | – | – | – | – | % effective [2]: 50-70%; incidence of adverse reactions [3]: around 50% |
| CC(=O)OC1=C([C@H]2CC[C@H](c3ccc(Cl)cc3)CC2)C(=O)c2ccccc2C1=O [Example 5, 2-Acetoxy-3-[trans-4-(4-chlorophenyl)cyclohexyl]-1,4-naphthoquinone] | – | – | – | – | – | – | – | – | – | – | – | – | – | – | – | – | – | – | – | – | water-solubility [4]: improved water-solubility |
| CC(C)(C)C1CCC(C2=C(O)C(=O)c3ccccc3C2=O)CC1 (stereo not shown) [Compound B, 2-(4-t-butylcyclohexyl)-3-hydroxy-1,4-naphthoquinone] | 100 | 15/15 | 7 | 1 | 0 | 0 | 93 | 13/14 | 8 | 4 | 1 | 0 | 1 | 80 | 12/15 | 8 | 3 | 0 | 1 | 3 | SCORE 1 (number of rats) ([1]; oral): 7 |
| trimethoprim-sulphamethoxazole | – | – | – | – | – | – | – | – | – | – | – | – | – | – | – | – | – | – | – | – | % effective [2]: 50-70% |
| CC(C)(C)C1CCC(CC2=C(O)C(=O)c3ccccc3C2=O)CC1 (stereo not shown) [C, 2-(4-t-butylcyclohexylmethyl)-3-hydroxy-1,4-naphthoquinone] | 93 | 13/14 | 2 | 4 | 4 | 1 | 100 | 14/14 | 2 | 6 | 4 | 2 | 0 | 92 | 12/13 | 4 | 2 | 6 | 0 | 1 | SCORE 1 (number of rats) ([1]; oral): 3 |
